{"source": "patent US20110195432A1", "about": "“METHODS FOR THE SELECTION OF THERAPEUTIC TREATMENTS FOR CANCER” (priority 2008, published 2011)", "key": {"AR [1]": {"system": "AR", "assay": "Western blot of AR protein levels, LNCaP cells", "format": "cell-based", "experimental": "Immunoprecipitation and immunoblotting were performed as described (Qian et al., Clin. Cancer Res. 12:634-42, 2006). The following antibodies used in immunoblotting or immunoprecipitations (indicated dilutions are for immunoblotting): AR (1:1000, #06-680 Upstate, Billerica, Mass.); acetylated lysine (#05-515 Upstate, Billerica, Mass.); acetylated tubulin (1:2000, #T6793 Sigma, St. Louis, Mo.); alpha-tubulin (1:10,000, #T6074 Sigma, St. Louis, Mo.); beta-actin (1:5000, #A5441 Sigma, St. Louis, Mo.); ERG-1/2/3, (1:5000, #sc-354X Santa Cruz, Santa Cruz, Calif.); FLAG epitope (#F7425 Sigma, St. Louis, Mo.); GAPDH (1:5000, #sc-32233 Santa Cruz, Santa Cruz, Calif.); HDAC6 (1:1000, #sc-11420 Santa Cruz); HSP90 (1:1000, #SPA-840 Stressgen, Ann Arbor, Mich.); mouse IgG (#sc-2025 Santa Cruz, Santa Cruz, Calif.). The following secondary antibodies were used: ECL-conjugated anti-mouse IgG, (1:5000, #A6782 Sigma, St. Louis, Mo.); ECL-conjugated anti-rabbit IgG (1:3000, #NA934 Amersham, Piscataway, N.J. or 1:10,000, #sc-2004 Santa Cruz, Santa Cruz, Calif.). X-ray exposures were scanned as uncompressed images and bands were quantified by densitometry with Quantity One software (Bio-Rad, Hercules, Calif.). Intensity values were normalized to those of the endogenous controls. The vehicle sample was set to 1. Enrichment was calculated as: (intensity IP/intensity input)/(intensity IgG/intensity input) or intensity IP/input (FIG. 1B).\nLNCaP cells were treated with sulforaphane in a dose-response (5 μM to 20 μM) and time-course (12 and 24 hours) manner to investigate the effect of HDAC6 inhibition on AR protein levels. Western blotting was performed as described in Example 1. […]"}, "AR [2]": {"system": "AR", "assay": "Real-time PCR of AR gene expression, LNCaP cells", "format": "cell-based", "settings": "increasing doses of sulforaphane, or TSA, vehicle set to 1", "from_the_text": "(§1) All samples were run in triplicate. The vehicle-treated sample was set to 1."}, "AR [3]": {"system": "AR", "assay": "Real-time PCR of AR gene expression, VCaP cells", "format": "cell-based", "settings": "24 hours, increasing doses of sulforaphane, or TSA, vehicle set to 1", "from_the_text": "as §1"}, "HDAC6 [4]": {"system": "HDAC6", "assay": "Western blot of HDAC6 protein levels, LNCaP cells", "format": "cell-based", "settings": "LNCaP cells"}, "AR [5]": {"system": "AR", "assay": "Western blot of AR protein levels, VCaP cells", "format": "cell-based", "settings": "TSA or increasing concentrations of CDDO-Imidazole (24 hours), compared with sulforaphane results"}, "acetylated alpha-tubulin": {"system": "acetylated alpha-tubulin", "assay": "Western blot of acetylated alpha-tubulin, LNCaP cells", "format": "cell-based", "settings": "LNCaP cells; increasing concentrations of CDDO-Imidazole, 24 hours", "experimental": "(§2) The vehicle sample was set to 1.\nLNCaP cells were transiently transfected with either a siRNA sequence complementary to the luciferase gene ([…]; SEQ ID NO: 8) or to HDAC6 ([…]; SEQ ID NO: 9) using DharmaFECT 3 transfection reagent for a final concentration of 100 nM (Dharmacon, Lafayette, Colo.). At 48, 72, and 96 hours post-transfection, cells were harvested. Levels of protein expression by Western blot were quantified."}, "HDAC6 [6]": {"system": "HDAC6", "assay": "Western blot of HDAC6 protein levels, VCaP cells", "format": "cell-based", "settings": "increasing concentrations of CDDO-Imidazole, 24 hours", "from_the_text": "as §2"}, "acetylated tubulin": {"system": "acetylated tubulin", "assay": "Western blot of acetylated tubulin, VCaP cells", "format": "cell-based", "settings": "increasing concentrations of CDDO-Imidazole, 24 hours", "from_the_text": "as §2"}, "AR [7]": {"system": "AR", "assay": "Western blot of AR protein levels, LNCaP cells", "format": "cell-based", "settings": "LNCaP cells"}, "Her2Neu protein": {"system": "Her2Neu protein", "settings": "breast cancer cells; through proteasomal degradation; cited from earlier work"}}, "note": "Residues, ends and D or L forms follow the SMILES beside them. *: point of attachment. Cbz = O=C(OCc1ccccc1)*"}
{"smiles": "CC(/C=C/C(=O)NO)=C\\[C@@H](C)C(=O)c1ccc(N(C)C)cc1", "note": "[TSA, trichostatin A]", "values": [{"measurement": "AR steady state level with simultaneous MG132 treatment", "setting": "AR [1]; 24 hours, sulforaphane 20 μM or 300 nM TSA with 10 μM MG132", "value": "restored the AR steady state level close to that seen in the vehicle-treated control"}, {"measurement": "AR protein in the absence of MG132", "setting": "AR [1]; 24 hours, sulforaphane 20 μM or 300 nM TSA, versus vehicle-treated cells", "value": "dramatic reductions"}, {"measurement": "AR protein levels at 24 hours", "setting": "AR [1]; sulforaphane 15 μM and 20 μM, TSA", "value": "recovered"}, {"measurement": "AR transcripts", "setting": "AR [2]", "value": "suppressed AR transcripts"}, {"measurement": "AR transcripts", "setting": "AR [3]", "value": "suppressed AR transcripts"}, {"measurement": "HDAC6 protein levels", "setting": "HDAC6 [4]; 16 hours, 300 nM TSA without or with 20 μM MG132", "value": "minimal effects"}]}
{"smiles": "CC1(C)CC[C@]2(C(=O)n3ccnc3)CC[C@]3(C)[C@H](C(=O)C=C4[C@@]5(C)C=C(C#N)C(=O)C(C)(C)[C@@H]5CC[C@]43C)[C@@H]2C1", "note": "[CDDO-Imidazole]", "values": [{"measurement": "AR protein levels", "setting": "AR [5]", "value": "reduced AR protein levels"}, {"measurement": "HDAC6 protein", "setting": "HDAC6 [4]; increasing concentrations of CDDO-Imidazole, 24 hours", "value": "depletes HDAC6 in a dose-dependent manner"}, {"measurement": "tubulin acetylation", "setting": "acetylated alpha-tubulin", "value": "increased tubulin acetylation"}, {"measurement": "HDAC6 protein", "setting": "HDAC6 [6]", "value": "depletes HDAC6 in a dose-dependent manner"}, {"measurement": "tubulin acetylation", "setting": "acetylated tubulin", "value": "increased tubulin acetylation"}, {"measurement": "AR protein levels", "setting": "AR [7]; TSA or increasing concentrations of CDDO-Imidazole (24 hours), compared with sulforaphane results", "value": "reduced AR protein levels"}, {"measurement": "Her2Neu protein levels", "setting": "Her2Neu protein", "value": "deplete Her2Neu protein levels"}]}
{"smiles": "CC(C)C[C@@H](C=O)NC(=O)[C@H](CC(C)C)NC(=O)[C@H](CC(C)C)NC(=O)OCc1ccccc1", "note": "[MG132] (Cbz-Leu-Leu-Leu-aldehyde)", "values": [{"measurement": "AR protein levels, MG132 alone", "setting": "AR [7]; 24 hours, 10 μM MG132 versus vehicle", "value": "did not change AR protein levels"}]}
